Measured values published in patent publication US20070032529A1, “Pyrazole compounds and their use as antidiabetes agents” (Japan Tobacco Inc., priority 2005, published 2007).
Where a name gives a salt, the structure may show the parent alone. Read-outs that look alike come from different tables or passages of the source.

Key:
[1] = target: T1, recombinant human liver glycogen phosphorylase (Homo sapiens, UniProt P06737); assay: Measuring liver glycogen phosphorylase activity (forward reaction system, NADPH absorbance at 340 nm); format: biochemical; details: for inhibition at 0.3 µM: compound concentration 300 nmol (in parentheses)
T1 construct: made in house; host or cells: Sf9 insect cells (crude homogenate, diluted, used as the enzyme solution)
T1 sequence (P06737 1-847): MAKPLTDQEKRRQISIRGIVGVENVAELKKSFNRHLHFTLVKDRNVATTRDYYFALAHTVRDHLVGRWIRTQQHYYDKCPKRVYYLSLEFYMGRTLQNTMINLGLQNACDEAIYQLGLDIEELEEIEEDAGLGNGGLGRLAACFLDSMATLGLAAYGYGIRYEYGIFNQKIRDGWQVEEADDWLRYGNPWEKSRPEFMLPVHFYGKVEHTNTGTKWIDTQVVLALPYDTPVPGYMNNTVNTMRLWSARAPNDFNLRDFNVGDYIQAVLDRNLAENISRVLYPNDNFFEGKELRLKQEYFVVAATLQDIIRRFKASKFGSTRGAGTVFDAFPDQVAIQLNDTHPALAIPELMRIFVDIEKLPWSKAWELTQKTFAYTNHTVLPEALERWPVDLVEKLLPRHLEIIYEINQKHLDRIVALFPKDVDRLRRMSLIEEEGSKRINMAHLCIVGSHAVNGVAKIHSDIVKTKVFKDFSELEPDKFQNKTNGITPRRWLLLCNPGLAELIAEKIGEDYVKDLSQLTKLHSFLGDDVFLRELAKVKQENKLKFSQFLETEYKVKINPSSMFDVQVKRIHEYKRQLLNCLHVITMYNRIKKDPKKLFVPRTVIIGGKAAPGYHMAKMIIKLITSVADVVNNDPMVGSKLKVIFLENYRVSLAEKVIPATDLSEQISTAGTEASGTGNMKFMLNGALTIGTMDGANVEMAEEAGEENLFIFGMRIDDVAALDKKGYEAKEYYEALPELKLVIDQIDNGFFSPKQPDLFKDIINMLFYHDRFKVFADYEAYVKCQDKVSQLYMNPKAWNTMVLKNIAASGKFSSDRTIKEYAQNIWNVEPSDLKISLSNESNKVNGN
How it was run: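 Compounds in 1% DMSO; activity taken as blank-subtracted 340 nm absorbance change across 75 min at room temperature. Forward reaction: glucose-1-phosphate released from glycogen converted by coupling enzymes, yielding NADPH; enzyme from recombinant Sf9 homogenate, reaction containing glucose, pH 6.8. IC50 from two-point linear interpolation.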

[2] = tested on: db/db mice; assay: Measuring blood plasma glucose concentration in db/db mice (hypoglycemic effect); format: in vivo; set-up: key: ++: compounds exhibiting statistically significant hypoglycemic effect at a dose of 10 mg/kg or less; +: compounds exhibiting not significant but obvious hypoglycemic effect at a dose of 10 mg/kg; details: for vivo (hypoglycemic effect in db/db mice): db/db mice fasted 4 h, oral administration, plasma glucose 1 and 3 hours after administration, dose 10 mg/kg or less, Dunnett test vs solvent; for vivo (hypoglycemic effect): db/db mice, blood plasma glucose, dose of 10 mg/kg or less
Description: 2. Exemplary Test (2) Method for Measuring Blood Plasma Glucose Concentration
Using db/db mice representing an obesity type of diabetic model were used to examine the effect of compound (1) of the present invention on glucose concentrations in plasma. Plasma glucose concentrations of the db/db mice (9-18 weeks old) were measured, and the mice were divided into groups each of 5 or 8 mice such that there would be no difference in the average value of plasma glucose concentrations. After fasting for four hours, the example compound or the solvent (0.5% methylcellulose) was administered orally to the db/db mice, and plasma glucose concentrations were measured 1 and 3 hours after administration. The analysis of the hypoglycemic effect of the example compound was performed through a statistical test at every hour between the group receiving the solvent and the groups of example compound (Dunnett test).

[3] = enzyme inhibitory activity with respect to liver glycogen phosphorylase, class symbols
[4] = human liver glycogen phosphorylase, class symbol
[5] = figure in brackets (100), read-out: IC50: % value given with (100)
[6] = read-out: inhibition rate (%) at a certain concentration

SMILES | IC50 [1, 3] [µM] | vivo (hypoglycemic effect in db/db mice) [2] | further results
Cl.Cn1c(CNC(=O)c2cc(NC(=O)c3cc(F)c(F)cc3Cl)[nH]n2)nc2ccccc21 [Example 1-50] | < 0.1 | + | 
Cc1cc(F)c(F)cc1C(=O)Nc1cc(C(=O)NCc2cccnc2)n[nH]1 [Example 7-10] |  |  | IC50 [1, 4]: < 0.1 µM; vivo (hypoglycemic effect) [2]: ++
Cc1cc(F)c(F)cc1C(=O)Nc1cc(C(=O)N(C)c2ccc(C(=O)[O-])cc2)n[nH]1.[Na+] [Example 7-1] |  |  | IC50 [1, 4]: < 0.1 µM; vivo (hypoglycemic effect) [2]: +
CCOc1ncccc1CNC(=O)c1cc(NC(=O)c2cc(F)c(F)cc2Cl)[nH]n1 [Example 3-41] | < 0.1 | ++ | 
CCCCN(C(=O)c1cc(NC(=O)c2cc(F)c(F)cc2Cl)[nH]n1)c1ccc(CC(=O)O)cc1 [Example 4-46] | < 0.1 | + | 
COc1ccc(CN(C(=O)c2cc(NC(=O)c3cc(F)c(F)cc3Cl)[nH]n2)C2CCC2)cn1 [Example 1-127] | < 0.1 | + | 
COc1ccc(CNC(=O)c2cc(NC(=O)c3cc(F)c(F)cc3Cl)[nH]n2)cn1 [Example 5-16] | < 0.1 |  | vivo (hypoglycemic effect in db/db mice) ([2]; 10 mg/kg): +
COc1ccc(CNC(=O)c2cc(NC(=O)c3cc(F)c(F)cc3Cl)[nH]n2)cn1 [Example 5-1] | < 0.1 |  | vivo (hypoglycemic effect in db/db mice) ([2]; 10 mg/kg): +
O=C(NN1CCOCC1)c1cccc(CNC(=O)c2cc(NC(=O)c3cc(F)c(F)cc3Cl)[nH]n2)c1 [Example 5-12] | < 0.1 | + | 
COc1ccc(CN(C(=O)c2cc(NC(=O)c3cc(F)c(F)cc3Cl)[nH]n2)C2CC2)cn1 [Example 1-126] | < 0.1 | + | 
COc1ccccc1CNC(=O)c1cc(NC(=O)c2cc(F)c(F)cc2Cl)[nH]n1 [Example 1-66] | < 0.1 | + | 
Cl.O=C(NCc1ccc(-c2csnn2)cc1)c1cc(NC(=O)c2cc(F)c(F)cc2Cl)[nH]n1 [Example 5-31] |  | + | 
Cc1noc(C)c1CNC(=O)c1cc(NC(=O)c2cc(F)c(F)cc2Cl)[nH]n1.Cl [Example 5-8] |  | + | 
O=C(NCc1cnccn1)c1cc(NC(=O)c2cc(F)c(F)cc2Cl)[nH]n1 [Example 5-42] |  | + | 
O=C(NCc1ccc(N2CCSCC2)nc1)c1cc(NC(=O)c2cc(F)c(F)cc2Cl)[nH]n1 [Example 5-43] |  | + | 
O=C(NCc1ccc(N2CCS(=O)(=O)CC2)nc1)c1cc(NC(=O)c2cc(F)c(F)cc2Cl)[nH]n1 [Example 5-44] |  | + | 
Cc1nn(C)c(C)c1CNC(=O)c1cc(NC(=O)c2cc(F)c(F)cc2Cl)[nH]n1 [Example 5-9] |  | + | 
CS(=O)(=O)O.Cc1noc(C)c1CNC(=O)c1cc(NC(=O)c2cc(F)c(F)cc2Cl)[nH]n1 [Example 5-10] |  | + | 
COc1cncc(OC)c1CNC(=O)c1cc(NC(=O)c2cc(F)c(F)cc2Cl)[nH]n1 [Example 5-17] |  | + | 
CN(C(=O)c1cc(NC(=O)c2cc(F)c(F)cc2Cl)[nH]n1)c1ccc(C(=O)[O-])cc1.[Na+] [Example 4-2-1, 4-{[5-(2-chloro-4,5-difluoro-benzoylamino)-1H-pyrazole-3-carbonyl]-methyl-amino}-benzoic acid sodium salt] |  | ++ | 
CN(C)c1ccc(CNC(=O)c2cc(NC(=O)c3cc(F)c(F)cc3Cl)[nH]n2)cc1.Cl [Example 3-29] |  | + | 

SMILES | IC50 [1, 3] [µM] | vivo (hypoglycemic effect in db/db mice) [2] | further results
O=C(NCc1ccccc1Cl)c1cc(NC(=O)c2cc(F)c(F)cc2Cl)[nH]n1 [Example 3-36] | < 0.1 |  | 
CN(CCc1ccccc1)C(=O)c1cc(NC(=O)c2cc(F)c(F)cc2Cl)[nH]n1 [Example 3-10] |  |  | inhibition at 1 µM ([1]; compound concentration 1000 nmol (in parentheses), read-out: inhibition rate (%) at a certain concentration): 23.2%
O=C(NCCN1CCOCC1)c1cccc(CNC(=O)c2cc(NC(=O)c3cc(F)c(F)cc3Cl)[nH]n2)c1 [Example 5-11] | < 0.1 |  | 
CC(=Nc1ccccc1CNC(=O)c1cc(NC(=O)c2cc(F)c(F)cc2Cl)[nH]n1)N(C)C [Example 6-24] |  |  | IC50 [1, 4]: < 0.1 µM
CN(C(=O)c1cc(NC(=O)c2cc(F)c(F)cc2Cl)[nH]n1)c1ccc(C(=O)OCOC(=O)C(C)(C)C)cc1 [Example 6-13] |  |  | inhibition at 0.1 µM [1, 5]: 17.5%
O=C(NCc1cccnc1)c1cc(NC(=O)c2cc(F)c(F)cc2Cl)[nH]n1 [Example 1-1-1, 5-(2-chloro-4,5-difluoro-benzoylamino)-1H-pyrazole-3-carboxylic acid (pyridin-3-ylmethyl)-amide dihydrochloride] |  | ++ | 
COCCN(C)C(=O)c1cc(NC(=O)c2cc(F)c(F)cc2Cl)[nH]n1 [Example 1-6] | 0.1 to 0.3 |  | 
CC(C)N(C(=O)c1cc(NC(=O)c2cc(F)c(F)cc2Cl)[nH]n1)c1ccccc1 [Example 4-3] | 0.1 to 0.3 |  | 
O=C(O)CCNC(=O)c1ccc(CNC(=O)c2cc(NC(=O)c3cc(F)c(F)cc3Cl)[nH]n2)cc1 [Example 5-7] | < 0.1 |  | 
Cc1nc(C)c(CNC(=O)c2cc(NC(=O)c3cc(F)c(Cl)cc3Cl)[nH]n2)o1 [Example 3-53] | < 0.1 |  | 
COc1ccccc1N(C)C(=O)c1cc(NC(=O)c2cc(F)c(F)cc2Cl)[nH]n1 [Example 3-28] | 0.1 to 0.3 |  | 
Cc1ccc(C)c(C(=O)Nc2cc(C(=O)NCc3ccccc3)n[nH]2)c1 [Example 4-35] |  |  | inhibition at 0.3 µM [1, 6]: 9.7%
CC(=O)Nc1cccc(CNC(=O)c2cc(NC(=O)c3cc(F)c(F)cc3Cl)[nH]n2)c1 [Example 2-17] | < 0.1 |  | 
CN(C)C1CCN(c2ccc(CNC(=O)c3cc(NC(=O)c4cc(F)c(F)cc4Cl)[nH]n3)cn2)CC1 [Example 5-40] | < 0.1 |  | 
COC(=O)CNC(=O)c1ccc(CNC(=O)c2cc(NC(=O)c3cc(F)c(F)cc3Cl)[nH]n2)cc1 [Example 1-43] | < 0.1 |  | 
CCc1nc(C)oc1CNC(=O)c1cc(NC(=O)c2cc(F)c(F)cc2Cl)[nH]n1 [Example 1-157] | < 0.1 |  | 
O=C(Nc1ccccc1N1CCOCC1)c1cc(NC(=O)c2cc(F)c(F)cc2Cl)[nH]n1 [Example 1-92] |  |  | inhibition at 0.3 µM [1, 6]: 11.7%
CCN(C=Nc1cccc(CNC(=O)c2cc(NC(=O)c3cc(F)c(F)cc3Cl)[nH]n2)c1)CC [Example 6-28] |  |  | IC50 [1, 4]: < 0.1 µM
COC(=S)ON=C(N)c1ccc(N(C)C(=O)c2cc(NC(=O)c3cc(F)c(F)cc3Cl)[nH]n2)cc1 [Example 6-14] |  |  | inhibition at 0.1 µM [1, 5]: 20.1%
CN(C(=O)c1cc(NC(=O)c2cc(F)c(F)cc2Cl)[nH]n1)c1ccc(C(=N)NO)cc1 [Example 6-11] |  |  | inhibition at 0.1 µM [1, 5]: 2.1%
COCCN(C(=O)c1cc(NC(=O)c2cc(F)c(F)cc2Cl)[nH]n1)c1ccc(C(=O)OC)cc1 [Example 4-47] |  |  | inhibition at 0.1 µM ([1]; compound concentration 100 nmol (in parentheses), read-out: inhibition rate (%) at a certain concentration): 1.2%
